Positions of bridges follow the written chain, without caps; N, C: chain ends. Non-standard residues stand in square brackets, D forms with d. Residues, ends and D or L forms follow the SMILES beside them. *: point of attachment. Malonyl(2,2-Me2,histaminyl) = CC(C)(C(=O)NCCc1cnc[nH]1)C(=O)*; Ala(1H-tetrazol-5-yl) = N[C@@H](Cc1nnn[nH]1)C(=O)O; αMePhe(2-F) = C[C@](N)(Cc1ccccc1F)C(=O)O; αMeL = CC(C)C[C@](C)(N)C(=O)O; Nle = CCCC[C@H](N)C(=O)O; Aib = CC(C)(N)C(=O)O

What is called Emax is the greatest response seen or fitted, relative to the assay's reference. One may read the share remaining as what is left of the initial amount, in per cent.

Data set [1] concerns the target T1, human GLP2 receptor (Homo sapiens, UniProt O95838).
T1 construct: expressed in transfected cells; host or cells: HEK cells, BacMam virus transduction
T1 sequence (O95838 1-553): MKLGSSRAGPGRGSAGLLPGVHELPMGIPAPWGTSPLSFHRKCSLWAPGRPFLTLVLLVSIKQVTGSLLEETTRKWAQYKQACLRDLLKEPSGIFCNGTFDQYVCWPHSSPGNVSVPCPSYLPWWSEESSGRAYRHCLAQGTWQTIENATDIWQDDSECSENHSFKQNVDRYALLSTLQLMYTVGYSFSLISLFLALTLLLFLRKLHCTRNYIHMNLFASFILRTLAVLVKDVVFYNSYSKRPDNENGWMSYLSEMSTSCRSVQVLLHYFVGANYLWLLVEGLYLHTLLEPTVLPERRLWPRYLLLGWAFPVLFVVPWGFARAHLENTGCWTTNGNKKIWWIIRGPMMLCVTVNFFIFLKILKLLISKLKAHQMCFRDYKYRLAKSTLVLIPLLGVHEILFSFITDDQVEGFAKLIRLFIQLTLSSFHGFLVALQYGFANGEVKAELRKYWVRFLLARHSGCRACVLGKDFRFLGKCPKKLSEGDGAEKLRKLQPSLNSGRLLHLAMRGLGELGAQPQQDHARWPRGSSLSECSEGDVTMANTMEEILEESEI
The experiment in a line: cAMP accumulation assay, functional agonism of human GLP2 receptor. In kind it is cell-based. As to conditions: HEK cells infected with human GLP2 receptor BacMam virus, HTRF cAMP; for Emax: HEK293, read-out: Human GLP-2R agonist cAMP Emax; for EC50: read-out: Human GLP-2R agonist cAMP pEC50 (converted). The essentials: (§1)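 HEK cells transduced 24 h with human GLP1 or GLP2 receptor BacMam virus, then frozen until use. Agonist stimulation for 45 min at 37 °C in HBSS with 0.5 mM IBMX; cAMP measured by HTRF after lysis.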

Data set [2] addresses T2, human GLP1 receptor (Homo sapiens, UniProt P43220).
T2 construct: expressed in transfected cells; host or cells: HEK cells, BacMam virus transduction
The experiment in a line: cAMP accumulation assay, functional agonism of human GLP1 receptor. Format: cell-based. As to conditions: HEK cells infected with human GLP1 receptor BacMam virus, HTRF cAMP; for Emax: HEK293, read-out: Human GLP-1R agonist cAMP Emax; for EC50: read-out: Human GLP-1R agonist cAMP pEC50 (converted). Put shortly:
as §1
(cAMP levels reflect the balance of adenylyl cyclase and phosphodiesterase activity.)

The target in data set [3] is T3, mouse GLP2 receptor (Mus musculus, UniProt Q5IXF8).
T3 construct: expressed in transfected cells; host or cells: HEK cells, transient transfection with GeneJuice
T3 sequence (Q5IXF8 1-512): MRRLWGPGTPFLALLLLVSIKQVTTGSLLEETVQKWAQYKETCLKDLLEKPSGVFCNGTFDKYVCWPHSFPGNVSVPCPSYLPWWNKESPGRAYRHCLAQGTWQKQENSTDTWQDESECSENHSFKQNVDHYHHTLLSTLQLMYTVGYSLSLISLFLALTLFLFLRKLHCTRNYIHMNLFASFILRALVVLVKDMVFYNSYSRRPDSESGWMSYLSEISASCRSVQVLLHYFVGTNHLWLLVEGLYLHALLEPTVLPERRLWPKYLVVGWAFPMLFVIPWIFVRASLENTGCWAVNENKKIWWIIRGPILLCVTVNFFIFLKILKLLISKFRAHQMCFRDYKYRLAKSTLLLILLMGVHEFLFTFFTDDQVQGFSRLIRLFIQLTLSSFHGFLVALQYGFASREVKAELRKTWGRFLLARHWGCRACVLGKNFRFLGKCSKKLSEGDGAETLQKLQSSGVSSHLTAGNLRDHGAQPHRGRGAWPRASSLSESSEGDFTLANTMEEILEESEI
The experiment in a line: cAMP accumulation assay, functional agonism of mouse GLP2 receptor. In kind it is cell-based. Conditions: HEK cells transiently transfected with mouse GLP2 receptor, HTRF cAMP; for Emax: HEK293, read-out: Mouse GLP-2R agonist cAMP Emax; for EC50: read-out: Mouse GLP-2R agonist cAMP pEC50 (converted). Put shortly: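 Transiently transfected HEK cells (24 h, frozen, 8000/well) in HBSS with 0.5 mM IBMX exposed to compound concentration series for 45 min at 37 °C. cAMP measured by HTRF after lysis and 1 h at RT; pEC50 from four-parameter concentration-response fit.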

The nature of data set [4]: Stability of peptides in Fasted-State Simulated Intestinal Fluid (FaSSIF). As to conditions: FaSSIF with 10 mg/ml pancreatin; t=30 mins, 37° C., pH 6.5, 10 mg/ml pancreatin. Format: in vitro ADME.
Data set [5] is described as follows: Stability of peptides in Fasted-State Simulated Gastric Fluid (FaSSGF). Format: in vitro ADME. Conditions: FaSSGF with 0.1 mg/ml pepsin; t=30 mins, 37° C., pH 1.6, 0.1 mg/ml pepsin.
The nature of data set [6]: Stability of peptides in rat intestinal fluid (ratIF). Conditions: Sprague Dawley, undiluted rat small intestinal fluid (ratIF).
Experimental: Peptides were tested for in vitro stability in native intestinal fluid obtained from the rat small intestine. Rat Sprague Dawley Small Intestinal Fluid (ratIF) (from Biotrend art. no. RSD-SIF-MI-30ML, undiluted) was preincubated for 15 min at 37° C. and spiked with test and reference item working solutions. Experiments were conducted in duplicate in a non-serial manner. The total incubation volume per replicate was 150 μl. […] All samples and calibration standards (prepared in ratIF) were precipitated by addition of 300 μl precipitant (ACN / 2% acetic acid / 0.2% HFBA, (precipitation regent, PR)) containing internal standards (ISTD) to 150 μl sample. After incubation for 1 h at room temperature all samples were centrifuged for 10 min at 2,200×g (room temperature).

T2 sequence (P43220 24-463): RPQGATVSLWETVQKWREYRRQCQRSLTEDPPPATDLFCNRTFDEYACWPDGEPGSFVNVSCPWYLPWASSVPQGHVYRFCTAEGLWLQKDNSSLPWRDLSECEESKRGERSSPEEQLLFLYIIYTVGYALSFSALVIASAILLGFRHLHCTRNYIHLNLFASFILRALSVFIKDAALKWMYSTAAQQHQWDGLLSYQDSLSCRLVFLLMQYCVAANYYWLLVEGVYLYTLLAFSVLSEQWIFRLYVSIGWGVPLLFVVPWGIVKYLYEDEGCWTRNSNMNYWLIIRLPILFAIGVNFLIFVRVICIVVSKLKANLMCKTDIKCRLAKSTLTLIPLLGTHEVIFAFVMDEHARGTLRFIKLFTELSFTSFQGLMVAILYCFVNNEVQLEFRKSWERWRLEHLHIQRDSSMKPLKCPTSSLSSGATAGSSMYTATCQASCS

`CCCC[C@@H]1NC(=O)[C@H](CCC(=O)O)NC(=O)[C@@H](NC(=O)[C@H](CO)NC(=O)[C@H](Cc2ccccc2)NC(=O)[C@H](CO)NC(=O)[C@@H](C)NC(=O)[C@H](Cc2nn[nH]n2)NC(=O)C(C)(C)C(=O)NCCc2c[nH]cn2)CCCCNC(=O)C[C@@H](C(=O)N[C@H](C(=O)N[C@@H](CC(C)C)C(=O)N[C@@H](CC(=O)O)C(=O)N[C@H]2CCC(=O)NCCCC[C@@H](C(=O)N[C@@H](CC(=O)O)C(=O)N[C@@H](Cc3ccccc3)C(=O)N[C@H](C(=O)N[C@H]3CCCCNC(=O)C[C@@H](C(=O)N[C@H]4CCC(=O)NCCCC[C@@H](C(N)=O)NC(=O)[C@H]([C@@H](C)O)NC(=O)[C@H]([C@@H](C)CC)NC(=O)[C@H](CCCCN)NC4=O)NC(=O)[C@H]([C@@H](C)CC)NC(=O)[C@H](CC(C)C)NC(=O)[C@H](Cc4c[nH]c5ccccc45)NC3=O)[C@@H](C)CC)NC(=O)[C@H](C)NC(=O)[C@H](C)NC(=O)[C@H](CCCCN)NC2=O)[C@@H](C)CC)NC(=O)[C@@H](Cc2ccccc2)NC1=O` [Example 40] ({Malonyl(2,2-Me2,histaminyl)}-[Ala(1H-tetrazol-5-yl)][dA]SFSKE[Nle][dF]DILDEKAAKDFIKWLIDEKITK-NH2; lactam 6-10, 14-18, 22-26, 27-31 (inferred); C-terminus assumed): the results for the Emax in data set [1], in data set [2] and in data set [3] were 105%, 89.9% and 99.6%, respectively. Besides, the EC50 in data set [1] was 0.00631 nM; in data set [2] it was 0.501 nM; in data set [3], 1.26 nM. Further, the values for the fraction remaining at 0.5 h in data set [4], in data set [5] and in data set [6] were 68.7%, 84.9% and 14.7%, respectively.

Consider `CCCC[C@H](NC(=O)[C@H](CCC(=O)O)NC(=O)[C@H](CC(=O)O)NC(=O)[C@H](CO)NC(=O)[C@](C)(Cc1ccccc1F)NC(=O)[C@H](CO)NC(=O)CNC(=O)[C@H](CC(=O)O)NC(=O)C(C)(C)NC(=O)[C@@H](N)Cc1c[nH]cn1)C(=O)N[C@H](Cc1ccccc1)C(=O)N[C@H]1CCC(=O)NCCCC[C@@H](C(=O)N[C@H]2CCC(=O)NCCCC[C@@H](C(=O)N[C@@H](CC(=O)O)C(=O)N[C@@H](Cc3ccccc3)C(=O)N[C@H](C(=O)N[C@H]3CCC(=O)NCCCC[C@@H](C(=O)N[C@H]4CCCCNC(=O)CC[C@@H](C(N)=O)NC(=O)[C@H]([C@@H](C)O)NC(=O)[C@H]([C@@H](C)CC)NC(=O)[C@H](CCCCN)NC4=O)NC(=O)[C@H]([C@@H](C)CC)NC(=O)[C@H](CC(C)C)NC(=O)[C@H](Cc4c[nH]c5ccccc45)NC3=O)[C@@H](C)CC)NC(=O)[C@H](C)NC(=O)[C@H](C)NC2=O)NC(=O)[C@H](CC(=O)O)NC(=O)[C@H](CC(C)C)NC(=O)[C@H]([C@@H](C)CC)NC1=O` [Example 48], for which the Emax in data set [1] came out at 101%; in data set [2], 98.7%; in data set [3], 103%. In addition, the EC50 in data set [1] is 0.00794 nM; in data set [2], 0.0158 nM; in data set [3], 0.0631 nM. The share remaining at 0.5 h in data set [4] was 80.2%; in data set [5] it was 100%; in data set [6], 100%.

Consider `CCCC[C@@H]1NC(=O)[C@H](CCC(=O)O)NC(=O)[C@@H](NC(=O)[C@H](CO)NC(=O)[C@](C)(Cc2ccccc2F)NC(=O)[C@H](CO)NC(=O)[C@@H](C)NC(=O)[C@H](CC(=O)O)NC(=O)C(C)(C)NC(=O)[C@@H](N)Cc2c[nH]cn2)CCCCNC(=O)C[C@@H](C(=O)N[C@H](C(=O)N[C@@H](CC(C)C)C(=O)N[C@@H](CC(=O)O)C(=O)N[C@H]2CCC(=O)NCCCC[C@@H](C(=O)N[C@@H](CC(=O)O)C(=O)N[C@@H](Cc3ccccc3)C(=O)N[C@H](C(=O)N[C@H]3CCCCNC(=O)C[C@@H](C(=O)N[C@H]4CCC(=O)NCCCC[C@@H](C(N)=O)NC(=O)[C@H]([C@@H](C)O)NC(=O)[C@H]([C@@H](C)CC)NC(=O)[C@H](CCCCN)NC4=O)NC(=O)[C@H]([C@@H](C)CC)NC(=O)[C@H](CC(C)C)NC(=O)[C@H](Cc4c[nH]c5ccccc45)NC3=O)[C@@H](C)CC)NC(=O)[C@H](C)NC(=O)[C@H](C)NC(=O)[C@H](CCCCN)NC2=O)[C@@H](C)CC)NC(=O)[C@@H](Cc2ccccc2)NC1=O` [Example 59] (H-H[Aib]D[dA]S[αMePhe(2-F)]SKE[Nle][dF]DILDEKAAKDFIKWLIDEKITK-NH2; lactam 8-12, 16-20, 24-28, 29-33 (inferred); C-terminus assumed), for which the Emax in data set [1] was determined as 103%; in data set [2], 95.2%; in data set [3] it was 103%. Also, the results for the EC50 in data set [1], in data set [2] and in data set [3] were 0.02 nM, 0.2 nM and 0.501 nM, respectively. Further, the amount remaining at 0.5 h is 61.9% in data set [4], 100% in data set [5] and 63.6% in data set [6].

As to `CCCC[C@@H]1NC(=O)[C@H](CCC(=O)O)NC(=O)[C@@H](NC(=O)[C@H](CO)NC(=O)[C@](C)(Cc2ccccc2F)NC(=O)[C@H](CO)NC(=O)[C@@H](C)NC(=O)[C@H](CC(=O)O)NC(=O)C(C)(C)NC(=O)[C@@H](N)Cc2c[nH]cn2)CCCCNC(=O)C[C@@H](C(=O)N[C@@](C)(CC(C)C)C(=O)N[C@@H](CC(C)C)C(=O)N[C@@H](CC(=O)O)C(=O)N[C@H]2CCC(=O)NCCCC[C@@H](C(=O)N[C@@H](CC(=O)O)C(=O)N[C@@H](Cc3ccccc3)C(=O)N[C@H](C(=O)N[C@H]3CCCCNC(=O)C[C@@H](C(=O)N[C@H]4CCC(=O)NCCCC[C@@H](C(N)=O)NC(=O)[C@H]([C@@H](C)O)NC(=O)[C@H]([C@@H](C)CC)NC(=O)[C@H](CCCCN)NC4=O)NC(=O)[C@H]([C@@H](C)CC)NC(=O)[C@H](CC(C)C)NC(=O)[C@H](Cc4c[nH]c5ccccc45)NC3=O)[C@@H](C)CC)NC(=O)[C@H](C)NC(=O)[C@H](C)NC(=O)[C@H](CCCCN)NC2=O)NC(=O)[C@@H](Cc2ccccc2)NC1=O` [Example 60] (H-H[Aib]D[dA]S[αMePhe(2-F)]SKE[Nle][dF]D[αMeL]LDEKAAKDFIKWLIDEKITK-NH2; lactam 8-12, 16-20, 24-28, 29-33 (inferred); C-terminus assumed), the Emax in data set [1] worked out at 102%; in data set [2], 96.5%; in data set [3], 102%. Besides, the EC50 in data set [1] was 0.0158 nM; in data set [2] it was 0.158 nM; in data set [3] it was 0.794 nM. The share remaining at 0.5 h in data set [4] was 62.5%; in data set [5], 100%; in data set [6] it was 89.6%.
